Experimental data: patent US9463256B2, “Pretargeting kit, method and agents used therein” (KONINKLIJKE PHILIPS N.V., priority 2010, dated 2016)

Experiments:
[1] = tested on: LS174T tumor model; experiment: Biodistribution experiments in tumor bearing mice pretargeted with CC49-TCO constructs; assay type: in vivo, Nude female Balb/C mice; settings: 3 h after injection
Description: (§1) LS174T tumor model. The human colon cancer cell line LS174T was obtained from the ATCC and maintained in Eagle's minimal essential medium (Sigma) supplemented with 10% heat inactivated fetal calf serum (Gibco), penicillin (100 U/mL), streptomycin (100 μg/mL) and 2 mM Glutamax. Nude female Balb/C mice (20-25 g body weight, Charles River Laboratories) were inoculated subcutaneously with 5×10^6 cells in 100 μL sterile PBS.
Dual isotope biodistribution experiments were performed by injecting tumor bearing mice (n=3) intravenously with ^125I-labeled CC49-TCO constructs with and without PEG10 spacer (100 μg/100 μL per mouse, ca. […] 0.8 MBq). Three hours after tetrazine administration, the animals were anesthetized with isoflurane and sacrificed by cervical dislocation. Blood was withdrawn by heart puncture and organs and tissues of interest were harvested, blotted dry and weighed. The radioactivity of the samples was measured in a γ-counter along with standards to determine the % ID/gram. The energy windows were set to 10-80 keV and 100-510 keV for ^125I and ^111In, respectively.

[2] = tested on: LS174T tumor model; experiment: SPECT/CT imaging of tumor-bearing mice; assay type: in vivo
Description: as §1
Tumor-bearing mice were injected with ^111In-tetrazine 28 (21 μg/75 μL per mouse, 20-50 MBq) 3 or 4 days after receiving 100 μg of a CC49-TCO construct without PEG10 spacer. Approximately 1 h later, the mice were anesthetized and positioned on an animal bed equipped with a nose cone for anesthesia and a sensor for respiratory monitoring. Single photon emission computed tomography (SPECT) was performed 2 h post tetrazine injection with a four-headed multi-pinhole small animal SPECT/CT imaging system (NanoSPECT, Bioscan Inc.). The SPECT acquisition (1 h total) was performed with 1.4 mm diameter pinholes and a 120-140 sec acquisition time per view (24 projections). The energy window for ^111In was set at 245 keV±15% and 171 keV±20%. Two-to-four days after the first scan, the mice were euthanized by anesthesia overdose and a second SPECT/CT scan was acquired overnight. Prior to each SPECT session a CT scan (2 sec per projection, 360 projections) was performed to obtain anatomical information on radioactivity distribution. After the acquisition, the data was reconstructed iteratively with the manufacturer's software (InVivoScope 1.39, patch 1). Regions of interest (ROIs) were drawn manually in triplicate for tumor, liver, kidney and thigh muscle. A phantom filled with a known amount of ^111In was used to calibrate the scanner for tissue radioactivity quantification. The image of three mice injected with CC49-TCO-O minor (CC49-20b), CC49-TCO-O major (CC49-20a) and CC49-TCO-C minor (CC49-14b) on a representative time scale are depicted in FIG. 13 A-C, respectively.
FIG. 13: (left) SPECT/CT projections of live mice 2 h after injection of ^111In-tetrazine 28 (21 μg/75 μL per mouse, ca. 40 MBq), 3-4 days after the administration of (A) CC49-TCO-O minor (CC49-20b), (B) CC49-TCO-O major (CC49-20a) or (C) CC49-TCO-C minor (CC49-14b) (100 μg/100 μL per mouse). (Right), post mortem SPECT/CT scans of the same mice 2-4 days after the first imaging session. White arrows indicate tumors.

[3] = tested on: LS174T tumor model; experiment: Tumor targeting of CC49-TCO (20b) constructs; assay type: in vivo, Nude female Balb/C mice; settings: 3 h post-injection
Description: as §1
[…] The mice that received ^125I—CC49 were sacrificed 4 days post mAb injection. The mice that received ^125I—CC49-TCO 20b were injected with ^111In-DOTA-tetrazine 28 at 72 h post-mAb injection (25 eq. with respect to mAb, ca. 0.8 MBq) and were sacrificed 3 h after tetrazine injection. At the time of sacrifice, blood was collected by heart puncture and organs and tissues of interest were harvested, blotted dry, weighed and added with 1 mL PBS. The radioactivity in all samples was measured in a gamma-counter (Wizard 3, Perkin Elmer) with a dual-isotope protocol (energy windows set to 10-80 keV and 100-510 keV for ^125I and ^111In, respectively) along with standards to determine the percent injected dose per gram tissue (% ID/g).

[4] = 3 days pretargeting with CC49-20a
[5] = 3 days pretargeting with CC49-20b
[6] = mice pretreated with CC49-TCO(8.5) 72 h before
[7] = mice pretreated with CC49-TCO(12.7) 72 h before
[8] = mice pretreated with CC49-TCO(18.2) 72 h before

With `O=C([O-])CN1CCN(CC(=O)[O-])CCN(CC(=O)NCCOCCOCCOCCOCCOCCOCCOCCOCCOCCOCCOCCNC(=O)CCCC(=O)Nc2ccc(-c3nnc(-c4ccccn4)nn3)nc2)CCN(CC(=O)[O-])CC1.[111In+3]` [^111In-tetrazine 28] as the compound, how does the “^111In-tetrazine in Muscle” value [1, 4] read?
The value was 0.21 ± 0.02 % ID/gram.

And the “^111In-tetrazine in Spleen” value [1, 4]?
The value was 0.43 ± 0.03 % ID/gram.

And the “^111In-tetrazine in Tumor” value [1, 4]?
The value was 3.11 ± 0.80 % ID/gram.

What about the “^111In-tetrazine in Blood” value [1, 5] of the same compound?
Its value is 0.59 ± 0.10 % ID/gram.

What about the “^111In-tetrazine in Bone” value [1, 5] of the same compound?
The value was 0.16 ± 0.02 % ID/gram.

What about the “^111In-tetrazine in Brain” value [1, 5] of the same compound?
Its value is 0.03 ± 0.01 % ID/gram.

What about the “^111In-tetrazine in Heart” value [1, 5] of the same compound?
The value was 0.22 ± 0.03 % ID/gram.

And the “^111In-tetrazine in Kidney” value [1, 5]?
The value was 2.59 ± 0.24 % ID/gram.

And the “^111In-tetrazine in Liver” value [1, 5]?
The value was 0.64 ± 0.06 % ID/gram.

What about the “^111In-tetrazine in Lung” value [1, 5] of the same compound?
Its value is 0.46 ± 0.07 % ID/gram.

What about the “^111In-tetrazine in Muscle” value [1, 5] of the same compound?
The value was 0.18 ± 0.09 % ID/gram.

What about the “^111In-tetrazine in Spleen” value [1, 5] of the same compound?
The value was 0.35 ± 0.08 % ID/gram.

What about the “^111In-tetrazine in Tumor” value [1, 5] of the same compound?
The value was 2.56 ± 0.65 % ID/gram.

What about the “^111In-tetrazine uptake in tumor (SPECT/CT)” value ([2]; 3 days after pre-treatment with CC49-TCO-O (both major and minor forms)) of the same compound?
The value was “high ^111In-tetrazine uptake in tumor”.

And the “radioactivity uptake (SPECT/CT)” value ([2]; after the administration of CC49-TCO-C minor, 4 days delay between the two treatments)?
Its value is “rather low radioactivity uptake”.

What about the “signal in the tumor at late scan (SPECT/CT)” value ([2]; mice given CC49-TCO-C minor, 2 days after the early scan) of the same compound?
Its value is “still present”.

And the “tumor radioactivity at late scan (SPECT/CT)” value ([2]; mice pre-treated with CC49-TCO 0, 72-96 h after ^111In-tetrazine injection)?
Its value is “still highly radioactive”.

And the “^111In-tetrazine 28 in Blood” value [3, 6]?
The value was 0.45 ± 0.14 % ID/g.

What about the “^111In-tetrazine 28 in Bone” value [3, 6] of the same compound?
The value was 0.10 ± 0.03 % ID/g.

What about the “^111In-tetrazine 28 in Brain” value [3, 6] of the same compound?
The value was 0.02 ± 0.01 % ID/g.

And the “^111In-tetrazine 28 in Heart” value [3, 6]?
Its value is 0.16 ± 0.03 % ID/g.

And the “^111In-tetrazine 28 in Kidney” value [3, 6]?
Its value is 1.64 ± 0.28 % ID/g.

And the “^111In-tetrazine 28 in Liver” value [3, 6]?
The value was 0.44 ± 0.12 % ID/g.

What about the “^111In-tetrazine 28 in Lung” value [3, 6] of the same compound?
The value was 0.42 ± 0.06 % ID/g.

What about the “^111In-tetrazine 28 in Muscle” value [3, 6] of the same compound?
The value was 0.11 ± 0.05 % ID/g.

And the “^111In-tetrazine 28 in Spleen” value [3, 6]?
Its value is 0.25 ± 0.05 % ID/g.

What about the “^111In-tetrazine 28 in Tumor” value [3, 6] of the same compound?
The value was 3.72 ± 1.45 % ID/g.

And the “^111In-tetrazine 28 in Blood” value [3, 7]?
The value was 0.37 ± 0.28 % ID/g.

And the “^111In-tetrazine 28 in Bone” value [3, 7]?
The value was 0.08 ± 0.02 % ID/g.

What about the “^111In-tetrazine 28 in Brain” value [3, 7] of the same compound?
The value was 0.01 ± 0.01 % ID/g.

What about the “^111In-tetrazine 28 in Heart” value [3, 7] of the same compound?
The value was 0.13 ± 0.05 % ID/g.

What about the “^111In-tetrazine 28 in Kidney” value [3, 7] of the same compound?
Its value is 1.25 ± 0.24 % ID/g.

What about the “^111In-tetrazine 28 in Liver” value [3, 7] of the same compound?
Its value is 0.29 ± 0.12 % ID/g.

What about the “^111In-tetrazine 28 in Lung” value [3, 7] of the same compound?
Its value is 0.34 ± 0.10 % ID/g.

And the “^111In-tetrazine 28 in Muscle” value [3, 7]?
The value was 0.05 ± 0.00 % ID/g.

And the “^111In-tetrazine 28 in Spleen” value [3, 7]?
Its value is 0.20 ± 0.06 % ID/g.

And the “^111In-tetrazine 28 in Tumor” value [3, 7]?
The value was 3.36 ± 1.69 % ID/g.

What about the “^111In-tetrazine 28 in Blood” value [3, 8] of the same compound?
Its value is 0.12 ± 0.03 % ID/g.

And the “^111In-tetrazine 28 in Bone” value [3, 8]?
The value was 0.10 ± 0.02 % ID/g.

And the “^111In-tetrazine 28 in Brain” value [3, 8]?
The value was 0.04 ± 0.05 % ID/g.

What about the “^111In-tetrazine 28 in Heart” value [3, 8] of the same compound?
The value was 0.09 ± 0.03 % ID/g.

And the “^111In-tetrazine 28 in Kidney” value [3, 8]?
Its value is 2.15 ± 0.17 % ID/g.

And the “^111In-tetrazine 28 in Liver” value [3, 8]?
The value was 0.26 ± 0.05 % ID/g.

What about the “^111In-tetrazine 28 in Lung” value [3, 8] of the same compound?
Its value is 0.29 ± 0.01 % ID/g.

What about the “^111In-tetrazine 28 in Muscle” value [3, 8] of the same compound?
Its value is 0.29 ± 0.43 % ID/g.

And the “^111In-tetrazine 28 in Spleen” value [3, 8]?
The value was 0.20 ± 0.02 % ID/g.

And the “^111In-tetrazine 28 in Tumor” value [3, 8]?
Its value is 1.21 ± 0.22 % ID/g.
